In patent publication US20220251096A1, “7,8-DIHYDRO-4H-PYRAZOLO[4,3-c]AZEPINE-6-ONE COMPOUNDS” (Eli Lilly and Company, priority 2019, published 2022) one finds IC50 and Kd data, which are given here for one molecule.

Test [1] has as its system OCI-AML2. Put plainly: Cell growth inhibition assay, OCI-AML2. Format: cell-based. The note with it: Homo sapiens, 168 h; OCI-AML2, 7 days. The protocol:
(§1) Tumor cell lines are plated onto 96-well, black wall poly-D-lysine plates (Corning #354640), and incubated at 37° C., 5% CO2 for 18-24 hours. Compound was added at 1:3 dilutions in DMSO and cells were incubated at 37° C., 5% CO2 for 7 days. For adherent cell lines, cells were fixed and stained with propidium iodide and scanned on Acumen (channel 3 setting). For suspension cell lines, cell growth was monitored using Cell Titer-Glo reagent.

The subject of test [2] is KG-1a. Put plainly: Cell growth inhibition assay, KG-1a. The following applies: Homo sapiens, 168 h, 7 days. It counts as cell-based. Here is the method:
as §1

In test [3] the test system is GDM1. Description: Cell growth inhibition assay, GDM1. Format: cell-based. The following applies: Homo sapiens, GDM-1, 168 h; GDM1, 7 days. The protocol:
as §1

Test [4] has as its system KG-1. Put plainly: Cell growth inhibition assay, KG-1. The note with it: Homo sapiens, 168 h; KG-1, 7 days. It counts as cell-based. Here is the method: as §1
Test [5] has as its system Kasumi (AML1-ETO). Description: Cell growth inhibition assay, Kasumi (AML1-ETO). It counts as cell-based. The following applies: 168 h, 7 days. The protocol: as §1
For test [6], the target named is T1, BRD4 (BD1) (Homo sapiens, UniProt O60885).
T1 construct: BRD4 (Bromodomain 1 (BD1) and Bromodomain 2 (BD2)); purchased DiscoverX (BromoKdELECT service)
Put plainly: BromoKdELECT platform assay, BRD4 (BD1). Format: binding. The following applies: 11 points dose-response, mean from a duplicate experiment. An excerpt:
(§2) The purpose of this assay is to evaluate the in vitro target engagement and selectivity (https://www.discoverx.com/services/drug-discovery-development-services/epigenetic-profiling/bromoscan-epigenetic-profiling/bromokdelect). Assay measurement is based on the amount of bromodomain captured in test and control samples by using quantitative PCR technology that detects the DNA label associated to bromodomain. Compounds that bind the bromodomain active site prevents its binding to the immobilized ligand and will reduce the amount of bromodomain captured on the solid support. […] Thus, compound activity is monitored by measuring the amount of bromodomain captured in test versus control samples by using qPCR. Binding affinity for test compound-bromodomain interactions are calculated by measuring the amount of bromodomain captured on the solid support as a function of the test compound concentration.
(§3) Binding affinity (Kd) of the compounds of Examples 1 and 2 towards CREBBP, EP300 and BRD4 (Bromodomain 1 (BD1) and Bromodomain 2 (BD2)) are determined in an 11 points dose-response study (See Table 5). Data is represented as a mean from a duplicate experiment.

Test [7] has as its target CREBBP (Homo sapiens, UniProt Q92793). Put plainly: BromoKdELECT platform assay, CREBBP. The following applies: 11 points dose-response, mean from a duplicate experiment. Format: binding. Also on record: purchased DiscoverX (BromoKdELECT service).
Description: as §2, §3

The target of test [8] is T2, hBRD4 (Homo sapiens, UniProt O60885).
T2 construct: NanLuc-BRD4 Full Length (Promega, 0.0002 μg); host or cells: HEK293
Description: NanoBRET assay, BRD4 full length. Format: cell-based. The note with it: NanoBRET in HEK293 cells, read after overnight incubation; mean ± Standard Deviation. The protocol:
HEK293 cells are seeded at 10×10^6 cells/16 mL in DMEM+10% FBS in a T-75 flask and left to attach for 4-6 hours. Transfection reagents are diluted in Opti-MEM media (no phenol red, no FBS) and 8% Fugene HD containing expression plasmids at a final concentration of the following: 1: Histone H3.3 HaloTag DNA (Promega, 0.02 μg)+NanoLuc-CREBBP-BD (Promega, 0.0002 μg); 2: Histone H3.3 HaloTag DNA (Promega, 0.02 μg)+NanoLuc-EP300-BD (Promega, 0.0002 μg); 3: Histone H4 HaloTag DNA (0.02 μg)+NanLuc-BRD4 Full Length (Promega, 0.0002 μg). The DNA/Fugene mixtures are left at RT for 10 minutes. Transfection mix (800 μL) is added per flask and immediately swirled to cover the cells. The plates are returned to the incubator for overnight transfection. The next day, HaloTag NanoBRET 618 ligand (20 μL/vial of 0.1 mM) is thawed at RT. […]
Compound is serially diluted and added to 96-well plates (2 10 mM, 3-fold dilutions, 100% DMSO). […] CREBBP/EP300 plates are read after 4 hours incubation and the BRD4 plates are read after overnight incubation. To develop plates for reading, allow all reagents to reach RT before use. […] The plate is shaken for 1 minute to mix and within 10 minutes, read on Envision plate reader with the following settings: Mirror: Luminescence; Emission filter: E600LP; 2nd emission filter: D460/50; Measurement height (mm): 6.5; Measurement time (s): 0.2 second.
(In general: Bioluminescence resonance energy transfer reports proximity on the nanometre scale.)

Test [9] deals with NCI-H211. Put plainly: Cell growth inhibition assay, NCI-H211. It counts as cell-based. The following applies: Homo sapiens, 168 h; NCI-H211, 7 days. Here is the method: as §1
The subject of test [10] is MOLM-16. Description: Cell growth inhibition assay, MOLM-16. Format: cell-based. The note with it: MOLM16, 168 h; MOLM-16, 7 days. Here is the method:
as §1

Test [11] has as its system SW780. Put plainly: Cell growth inhibition assay, SW780. Format: cell-based. The following applies: Homo sapiens, 168 h; SW780, 7 days. Here is the method: as §1

Sequence of CREBBP (Q92793 1085-1192 limits assumed): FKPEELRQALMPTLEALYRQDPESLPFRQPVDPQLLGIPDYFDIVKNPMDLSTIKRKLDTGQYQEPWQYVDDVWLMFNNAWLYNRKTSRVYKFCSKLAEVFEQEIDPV

With `CCNC(=O)c1ccc(-c2cc3cccc(-c4nn(C)c5c4CN(C)C(=O)CC5)c3cn2)cn1` [Example 2, 5-[8-(1,5-Dimethyl-6-oxo-7,8-dihydro-4H-pyrazolo[4,3-c]azepin-3-yl)-3-isoquinolyl]-N-ethyl-pyridine-2-carboxamide], the IC50 in [1] was determined as 207 nM; in [2], 2 nM; in [3] it was 280 nM; in test [4], 83 nM; in test [5] it was 8 nM; in test [8], 11800 nM. For the same molecule, the half-inhibitory concentration (IC50) in test [9] was 65 nM; in test [10], 129 nM; in [11], 4 nM. Also, the dissociation constant Kd in test [6] amounted to 2650 nM; in [7] it was 0.325 nM.

A word on the IC50: it is the concentration that inhibits the measured activity by half. A lower IC50 goes with higher potency. Usually Kd stands for the equilibrium constant for the complex coming apart. Read a high Kd as lower affinity.
